Values of other authors, collected in US9034354B2, “Bacteriostatic and anti-collagenolytic dental materials through the incorporation of polyacrylic acid modified CuI nanoparticles” (MUSC Foundation for Research Development, priority 2012, dated 2015).

System: Streptococcus mutans
Conditions: discs of composite resin containing MDPB versus discs without MDPB, in the presence of Streptococcus mutans

Structure (SMILES): C=C(C)C(=O)OCCCCCCCCCCCC[n+]1ccccc1.[Br-] [MDPB, 12-methacryloyloxydodecylpyridinium bromide]
- numbers of bacteria recovered from the discs reduced by: 97%
